Laboratory results reported in the NIST ThermoML archive (doi:10.1016/j.jct.2015.02.020).

Experiments:
[1] = refractive index (Na D-line) (dimensionless); xn = mol fraction of the nth substance listed; conditions: 101.3 kPa, Liquid, Standard Abbe refractometry
[2] = xn = mol fraction of the nth substance listed; conditions: 101.3 kPa, Liquid; for viscosity: Falling or rolling sphere viscometry; for speed of sound: Sing-around technique in a fixed-path interferometer; for mass density: Vibrating tube method

CC[n+]1ccc(C)cc1.O=S(=O)([N-]S(=O)(=O)C(F)(F)F)C(F)(F)F + O
Conditions | mass density, [2] [kg/m3] | refractive index, [1] | speed of sound, [2] [m/s] | viscosity, [2] [mPa·s]
298.15 K, x2 = 0.144 | 1479.48 | 1.44235 | 1266.8 | 24.89
298.15 K, x2 = 0.201 | 1476.6 | 1.44165 | 1268.3 | 22.72
298.15 K, x2 = 0.306 | 1469.91 | 1.44005 | 1271.7 | 19.35
303.15 K, x2 = 0.144 | 1474.53 | 1.44089 | 1255.4 | 21.05
303.15 K, x2 = 0.201 | 1471.63 | 1.44016 | 1256.8 | 19.29
303.15 K, x2 = 0.306 | 1464.89 | 1.43866 | 1260.3 | 16.23
308.15 K, x2 = 0.144 | 1469.61 | 1.4394 | 1244.1 | 18.04
308.15 K, x2 = 0.201 | 1466.68 | 1.43875 | 1245.5 | 16.53
308.15 K, x2 = 0.306 | 1459 | 1.43719 | 1249.2 | 13.95
313.15 K, x2 = 0.144 | 1464.69 | 1.43785 | 1232.9 | 15.53
313.15 K, x2 = 0.201 | 1461.75 | 1.43727 | 1234.3 | 14.31
313.15 K, x2 = 0.306 | 1454.92 | 1.4355 | 1238 | 12.19
318.15 K, x2 = 0.144 | 1459.79 | 1.43674 | 1221.8 | 13.59
318.15 K, x2 = 0.201 | 1456.83 | 1.4359 | 1223.2 | 12.58
318.15 K, x2 = 0.306 | 1449.95 | 1.4346 | 1226.8 | 10.74
323.15 K, x2 = 0.144 | 1454.91 | 1.43532 | 1210.9 | 12.03
323.15 K, x2 = 0.201 | 1451.92 | 1.43441 | 1212.2 | 11.15
323.15 K, x2 = 0.306 | 1444.99 | 1.43373 | 1215.7 | 9.52
328.15 K, x2 = 0.144 | 1450.05 | 1.43396 | 1200.1 | 10.7
328.15 K, x2 = 0.201 | 1447.04 | 1.43298 | 1201.3 | 9.939
328.15 K, x2 = 0.306 | 1440.05 | 1.4324 | 1204.7 | 8.473
333.15 K, x2 = 0.144 | 1445.21 | 1.43253 | 1189.4 | 9.576
333.15 K, x2 = 0.201 | 1442.18 | 1.43159 | 1190.6 | 8.902
333.15 K, x2 = 0.306 | 1435.13 | 1.43102 | 1193.9 | 7.583
338.15 K, x2 = 0.144 | 1440.39 | 1.43108 | 1178.7 | 8.598
338.15 K, x2 = 0.201 | 1437.33 | 1.43016 | 1179.9 | 7.999
338.15 K, x2 = 0.306 | 1430.22 | 1.42965 | 1183 | 6.83
343.15 K, x2 = 0.144 | 1435.58 | 1.42964 | 1168.2 | 7.76
343.15 K, x2 = 0.201 | 1432.49 | 1.42874 | 1169.3 | 7.221
343.15 K, x2 = 0.306 | 1425.33 | 1.42828 | 1172.2 | –
